Measurements reported in US20070218134A1, “Compositions Comprising Organic Compounds” (priority 2003, published 2007).
Counter-ions that a name gives are not always drawn.

Key:
[1] = solubility of pitavastatin depending on pH; type: physicochemical; settings: acidic pH conditions
[2] = degradation kinetics of fluvastatin in aqueous solution at various pH; type: physicochemical
Source text: Certain HMG-CoA reductase inhibitors are extremely susceptible to degradation at pH below about 8. An example of such a compound comprises the compound having the USAN designation fluvastatin sodium (hereinafter “fluvastatin”), of the chemical designation: R*,S*-(E)(±)-7-[3-(4-fluorophenyl)-1-(1-methyl-ethyl)-1H-indol-2-yl]-3,5-dihydroxy-6-heptenoic acid, sodium salt, [see European Patent Application EP-A-114027].
For example, the degradation kinetics of fluvastatin in aqueous solution at various pH is illustrated below:
The above-indicated instability of fluvastatin and related HMG-CoA reductase compounds is believed to be due to the extreme lability of the β,δ-hydroxy groups on the heptenoic acid chain and the presence of the double bond, such that at neutral to acidic pH, the compounds readily undergo elimination or isomerization or oxidation reactions to form conjugated unsaturated aromatic compounds, as well as the threo isomer, the corresponding lactones, and other degradation products.

| solubility of pitavastatin [1] | % fluvastatin remaining at 37° C. ([2]; pH 1.0, after 1 hour) [%] | % fluvastatin remaining at 37° C. ([2]; pH 1.0, after 24 hrs) [%] | % fluvastatin remaining at 37° C. ([2]; pH 4.0, after 1 hour) [%] | % fluvastatin remaining at 37° C. ([2]; pH 4.0, after 24 hrs) [%] | % fluvastatin remaining at 37° C. ([2]; pH 6.0, after 1 hour) [%] | % fluvastatin remaining at 37° C. ([2]; pH 6.0, after 24 hrs) [%] | % fluvastatin remaining at 37° C. ([2]; pH 7.8, after 1 hour) [%] | % fluvastatin remaining at 37° C. ([2]; pH 7.8, after 24 hrs) [%] | Compound |
| --- | --- | --- | --- | --- | --- | --- | --- | --- | --- |
| higher |  |  |  |  |  |  |  |  | O=C(O)C[C@H](O)C[C@H](O)/C=C/c1c(C2CC2)nc2ccccc2c1-c1ccc(F)cc1 [pitavastatin] |
|  | 10.9 | 0 | 86.7 | 25.2 | 99.6 | 97.1 | 98.3 | 98.0 | CC(C)n1c(/C=C/C(O)CC(O)CC(=O)O)c(-c2ccc(F)cc2)c2ccccc21 (stereo not drawn) [fluvastatin, R*,S*-(E)(±)-7-[3-(4-fluorophenyl)-1-(1-methyl-ethyl)-1H-indol-2-yl]-3,5-dihydroxy-6-heptenoic acid, sodium salt] |
